# From US11096987B2, “Mutant peptides and methods of treating subjects using the same” (BIOINCEPT, LLC, priority 2015, dated 2021)
# Read-outs that look alike come from different tables or passages of the source.
# What was measured:
# [1] = tested on: let-7; experiment: let-7 microRNA levels in microglia and neural cell lines; assay type: cell-based
# From the text: (§1) (FIG. 2). […] (FIG. 3). […] (FIG. 4). […] Thus dependent on the target Kv1.3 or IDE the mutated PIF-1 can have a target-specific effect which can also translate to diverse biological activity.
# This direct effect on target cells was confirmed by targeting microglia and neuron cell line (Neu) in vitro (FIGS. 5C, D). […] Phosphorylated CREB in turn facilitates expression of (Gap43, Bdnf and Bcl2) (FIG. 5F) that play important role regulating neuronal growth, survival, which is dependent on TLR4 signaling (FIG. 5G). PKA/PKC was reported to impart TBI (Lucke-Wold, Logsdon et al. 2014; Zohar, Lavy et al. 2011; Titus 2013). […] For currently used neuroprotective drugs ability to reach the brain in both intact and damaged settings is difficult. Therefore frequently drugs in order to pass the BBB they have to be very small, or have to be added to agents that would favor passage.
# [2] = tested on: CD11b (macrophage) monocytes; experiment: FITC-PIF assay, binding to CD11b monocytes; details: for CD11b %: FITC-PIF binding
# [3] = target: insulin degrading enzyme (IDE) (Homo sapiens, UniProt P14735); experiment: Fluorescent based thermal shift assay; assay type: binding; details: ligands 10 uM, receptor 1 uM
# Protocol: Concentrations of the ligands 10 uM and 1 uM of the receptor, buffer consisting of 10 mM HEPES-HCL, 150 mM […], and protein folding sensitive dye SyO 1:1000.
# as §1
# [4] = tested on: Jurkat T-cells; experiment: K+ flux inhibition in Jurkat T-cells; assay type: cell-based; details: compared with control
# From the text: as §1
# [5] = tested on: CD19 (B cell) monocytes; experiment: FITC-PIF assay, binding to CD19 monocytes
Sequence,effect on let-7 microRNA [1],binding affinity to CD11b monocytes compared to natural PIF [2],CD11b % [2],Tm / thermal shift compared to PIF(wt) ([3]; listed as PIF(mutant-3)),Tm / thermal shift compared to PIF(wt) ([3]; listed as mut-3),effect on K+ flux [4],binding affinity to CD19 monocytes compared to natural PIF [5],CD19 % ([5]; FITC-PIF binding),CD19 % [5],Tm / thermal shift compared to PIF(wt) ([3]; listed as PIF(mutant-1)),Tm / thermal shift compared to PIF(wt) ([3]; listed as mut-1)
"MVRGKPGSANKPSDD [SEQ ID NO: 8, PIF mutant]",lack of effect,higher binding affinity,35.48%,increased Tm,activity was decreased,no effect,higher binding affinity,5.60%,,,
AVRIKPGSANKPSDD [SEQ ID NO: 10],,higher binding affinity,33.54%,,,,higher binding affinity,,5.90%,,
"MVRIKEGSANKPSDD [SEQ ID NO: 7, PIF mutant]",,,,,,no effect,,,,decreased Tm,reduced thermal shift
